Laboratory results reported in PubChem BioAssay (NCI).
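Briefly, cells in 96-well plates were exposed to five compound concentrations for 48 h, and endpoints were estimated by linear interpolation. GI50 = concentration required for 50% inhibition of growth. Definition used: TGI = concentration required for complete inhibition of growth.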

Columns and labels:
Assay in all cases: NCI anticancer screen, dose series, 48 h
HCT-15 colon = test system: HCT-15 colon
DU-145 prostate = test system: DU-145 prostate
NCI-H226 lung = test system: NCI-H226 lung
PC-3 prostate = test system: PC-3 prostate
NCI-H460 lung = test system: NCI-H460 lung
HT29 colon = test system: HT29 colon
NCI/ADR-RES ovarian = test system: NCI/ADR-RES ovarian
COLO 205 colon = test system: COLO 205 colon
SK-MEL-28 melanoma = test system: SK-MEL-28 melanoma
UACC-257 melanoma = test system: UACC-257 melanoma
MCF7 breast = test system: MCF7 breast
HL-60(TB) leukemia = test system: HL-60(TB) leukemia
CCRF-CEM leukemia = test system: CCRF-CEM leukemia
T-47D breast = test system: T-47D breast
SK-OV-3 ovarian = test system: SK-OV-3 ovarian
MDA-MB-435 = test system: MDA-MB-435
RPMI-8226 leukemia = test system: RPMI-8226 leukemia
M14 melanoma = test system: M14 melanoma
A498 renal = test system: A498 renal
KM12 colon = test system: KM12 colon
BT-549 breast = test system: BT-549 breast
MDA-MB-231 breast = test system: MDA-MB-231 breast
NCI-H522 lung = test system: NCI-H522 lung
UACC-62 melanoma = test system: UACC-62 melanoma
IGROV1 ovarian = test system: IGROV1 ovarian
CAKI-1 renal = test system: CAKI-1 renal
A549 NSCLC = test system: A549 NSCLC
K-562 leukemia = test system: K-562 leukemia
OVCAR-3 ovarian = test system: OVCAR-3 ovarian
HCC-2998 colon = test system: HCC-2998 colon
786-0 renal = test system: 786-0 renal
SF-539 CNS = test system: SF-539 CNS
SR leukemia = test system: SR leukemia
OVCAR-8 ovarian = test system: OVCAR-8 ovarian
U251 CNS = test system: U251 CNS
SF-268 CNS = test system: SF-268 CNS
SNB-19 CNS = test system: SNB-19 CNS
TK-10 renal = test system: TK-10 renal
HOP-62 NSCLC = test system: HOP-62 NSCLC
HCT-116 colon = test system: HCT-116 colon
SNB-75 CNS = test system: SNB-75 CNS
SF-295 CNS = test system: SF-295 CNS
HS 578T breast = test system: HS 578T breast
NCI-H23 lung = test system: NCI-H23 lung
LOX IMVI melanoma = test system: LOX IMVI melanoma
SK-MEL-2 melanoma = test system: SK-MEL-2 melanoma
SW-620 colon = test system: SW-620 colon
MDA-MB-468 breast = test system: MDA-MB-468 breast
RXF 393 renal = test system: RXF 393 renal
EKVX NSCLC = test system: EKVX NSCLC
ACHN renal = test system: ACHN renal
SN12C renal = test system: SN12C renal
HOP-92 NSCLC = test system: HOP-92 NSCLC
MALME-3M melanoma = test system: MALME-3M melanoma
OVCAR-4 ovarian = test system: OVCAR-4 ovarian
UO-31 renal = test system: UO-31 renal
MOLT-4 leukemia = test system: MOLT-4 leukemia
OVCAR-5 ovarian = test system: OVCAR-5 ovarian
SK-MEL-5 melanoma = test system: SK-MEL-5 melanoma

With `C/C(=N\N=C\c1cc([N+](=O)[O-])ccc1Cl)c1ccc2c(c1)Nc1ccccc1S2` the GI50 (HCT-15 colon) was 19.2 µM, the TGI (HCT-15 colon) was > 100 µM and the GI50 (DU-145 prostate) was 34.4 µM. The TGI (DU-145 prostate) was > 100 µM, the GI50 (NCI-H226 lung) was 17.7 µM and the TGI (NCI-H226 lung) was > 100 µM. The GI50 (PC-3 prostate) was 38.4 µM, the TGI (PC-3 prostate) was > 100 µM and the GI50 (NCI-H460 lung) was 6.28 µM. For the same compound, the TGI (NCI-H460 lung) was 21.4 µM, the GI50 (HT29 colon) was 26 µM and the TGI (HT29 colon) was > 100 µM. The GI50 (NCI/ADR-RES ovarian) was 17.9 µM, the TGI (NCI/ADR-RES ovarian) was 65.5 µM and the GI50 (COLO 205 colon) was 18.3 µM. The TGI (COLO 205 colon) was > 100 µM, the GI50 (SK-MEL-28 melanoma) was > 100 µM and the TGI (SK-MEL-28 melanoma) was > 100 µM. For the same compound, the GI50 (UACC-257 melanoma) was 23.6 µM, the TGI (UACC-257 melanoma) was > 100 µM and the GI50 (MCF7 breast) was 21.5 µM. For the same compound, the TGI (MCF7 breast) was > 100 µM, the GI50 (HL-60(TB) leukemia) was 24.2 µM and the TGI (HL-60(TB) leukemia) was > 100 µM. For the same compound, the GI50 (CCRF-CEM leukemia) was 11.4 µM, the TGI (CCRF-CEM leukemia) was > 100 µM and the GI50 (T-47D breast) was 4.3 µM. The TGI (T-47D breast) was 25.8 µM, the GI50 (SK-OV-3 ovarian) was 14.9 µM and the TGI (SK-OV-3 ovarian) was 45.1 µM. For the same compound, the GI50 (MDA-MB-435) was 22.9 µM, the TGI (MDA-MB-435) was > 100 µM and the GI50 (RPMI-8226 leukemia) was 20.6 µM. For the same compound, the TGI (RPMI-8226 leukemia) was > 100 µM, the GI50 (M14 melanoma) was 51.7 µM and the TGI (M14 melanoma) was > 100 µM. The GI50 (A498 renal) was 12.6 µM, the TGI (A498 renal) was 27.6 µM and the GI50 (KM12 colon) was 35.8 µM. The TGI (KM12 colon) was > 100 µM, the GI50 (BT-549 breast) was 20.7 µM and the TGI (BT-549 breast) was > 100 µM. The GI50 (MDA-MB-231 breast) was 21.1 µM, the TGI (MDA-MB-231 breast) was 63 µM and the GI50 (NCI-H522 lung) was 12.2 µM. For the same compound, the TGI (NCI-H522 lung) was 41 µM, the GI50 (UACC-62 melanoma) was 29 µM and the TGI (UACC-62 melanoma) was > 100 µM. The GI50 (IGROV1 ovarian) was 23.6 µM, the TGI (IGROV1 ovarian) was > 100 µM and the GI50 (CAKI-1 renal) was 12.5 µM. For the same compound, the TGI (CAKI-1 renal) was 27.7 µM, the GI50 (A549 NSCLC) was 7.56 µM and the TGI (A549 NSCLC) was 31.8 µM. For the same compound, the GI50 (K-562 leukemia) was 16.8 µM, the TGI (K-562 leukemia) was > 100 µM and the GI50 (OVCAR-3 ovarian) was 11.3 µM. For the same compound, the TGI (OVCAR-3 ovarian) was 24 µM, the GI50 (HCC-2998 colon) was 52.2 µM and the TGI (HCC-2998 colon) was > 100 µM. It also gave a GI50 (786-0 renal) of 12.4 µM, a TGI (786-0 renal) of 27.6 µM and a GI50 (SF-539 CNS) of 16.9 µM. For the same compound, the TGI (SF-539 CNS) was 35.2 µM, the GI50 (SR leukemia) was 13.5 µM and the TGI (SR leukemia) was 81 µM. For the same compound, the GI50 (OVCAR-8 ovarian) was 12.2 µM, the TGI (OVCAR-8 ovarian) was 35.8 µM and the GI50 (U251 CNS) was 8.36 µM. The TGI (U251 CNS) was 23.9 µM, the GI50 (SF-268 CNS) was 26.3 µM and the TGI (SF-268 CNS) was > 100 µM. The GI50 (SNB-19 CNS) was 23.8 µM, the TGI (SNB-19 CNS) was > 100 µM and the GI50 (TK-10 renal) was 11.4 µM. The TGI (TK-10 renal) was 24.9 µM, the GI50 (HOP-62 NSCLC) was 16.6 µM and the TGI (HOP-62 NSCLC) was 39.8 µM. It also gave a GI50 (HCT-116 colon) of 3.36 µM, a TGI (HCT-116 colon) of 15.3 µM and a GI50 (SNB-75 CNS) of 12.6 µM. The TGI (SNB-75 CNS) was 33.4 µM, the GI50 (SF-295 CNS) was 13.5 µM and the TGI (SF-295 CNS) was 35.1 µM. The GI50 (HS 578T breast) was 15 µM, the TGI (HS 578T breast) was 58.3 µM and the GI50 (NCI-H23 lung) was 16.3 µM. For the same compound, the TGI (NCI-H23 lung) was 45 µM, the GI50 (LOX IMVI melanoma) was 31.3 µM and the TGI (LOX IMVI melanoma) was > 100 µM. It also gave a GI50 (SK-MEL-2 melanoma) of 20.8 µM, a TGI (SK-MEL-2 melanoma) of 83.1 µM and a GI50 (SW-620 colon) of 9.55 µM. It also gave a TGI (SW-620 colon) of 24.5 µM, a GI50 (MDA-MB-468 breast) of 1.83 µM and a TGI (MDA-MB-468 breast) of 18.6 µM. For the same compound, the GI50 (RXF 393 renal) was 16.6 µM, the TGI (RXF 393 renal) was 94.5 µM and the GI50 (EKVX NSCLC) was 19.3 µM. The TGI (EKVX NSCLC) was 79.8 µM, the GI50 (ACHN renal) was 2.87 µM and the TGI (ACHN renal) was 8.59 µM. The GI50 (SN12C renal) was 6.86 µM, the TGI (SN12C renal) was 28.5 µM and the GI50 (HOP-92 NSCLC) was 16.1 µM. For the same compound, the TGI (HOP-92 NSCLC) was 89.5 µM, the GI50 (MALME-3M melanoma) was 19.1 µM and the TGI (MALME-3M melanoma) was > 100 µM. It also gave a GI50 (OVCAR-4 ovarian) of 3.12 µM, a TGI (OVCAR-4 ovarian) of 11.8 µM and a GI50 (UO-31 renal) of 11.2 µM. For the same compound, the TGI (UO-31 renal) was 25.4 µM, the GI50 (MOLT-4 leukemia) was 20.4 µM and the TGI (MOLT-4 leukemia) was > 100 µM. The GI50 (OVCAR-5 ovarian) was 28.4 µM, the TGI (OVCAR-5 ovarian) was > 100 µM and the GI50 (SK-MEL-5 melanoma) was 24.9 µM. The TGI (SK-MEL-5 melanoma) was > 100 µM.
